Measured values: patent publication US11466025B2, “Thienopyridine derivatives containing unsaturated aliphatic olefinic bond, preparation method and use thereof” (Tianjin Institute of Pharmaceutical Research Co., Ltd., priority 2017, dated 2022)
Where two headings read alike, the source gives them in different places. One block for each compound: values may come before it.

Legend:
[1] = system: arteriovenous bypass thrombosis in rats; assay: Test of effect of compounds on arteriovenous bypass thrombosis in rats; assay type: in vivo, SD rats; conditions: rats; for ED50: Rattus norvegicus, po, dry weight of thrombus from arteriovenous bypass, intragastric, read-out: ED50; for Inhibition rate (%): dry weight of thrombus
Experimental: Test of Effect of Compounds on Arteriovenous Bypass Thrombosis in Rats
Male SD rats were randomly divided into solvent control group, positive drug control group and test compound group. The solvent control group was administered a corresponding volume of the solvent. […] Rats were anesthetized with 4% chloral hydrate (0.32 g/kg), and fixed on the operating table at the supine position. The right common carotid artery and the left external jugular vein were separated, and was each inserted with a Teflon tube filled with normal saline solution containing heparin (50 U/mL), which were connected through another Teflon tube. A 6 cm long cotton thread was placed at the joints of the two tubes. After 2.5 h of administration, the arteriovenous loop was opened in each group and circulated for 15 min. The blood flow was interrupted, and the cotton thread wrapped with the thrombus was quickly removed and weighed. The weight of the cotton thread was subtracted to obtain the wet weight of the thrombus, and then it was baked in the oven to constant weight and weighed. The weight of the cotton thread was subtracted to obtain the dry weight of the thrombus.

[2] = for Concentration of incubated compound in human plasma / Incubated compound in human plasma, %: 1 μM
Experimental: Plasma samples (double sample) containing 1 μM of the compounds of the present invention, clopidogrel hydrogen sulfate (LBGL), 2-oxo product (2-Oxo) were prepared from human blank plasma, and incubated at 37° C. 50 μL of the above incubated plasma samples were taken at different time points, and 100 μL of precipitant (acetonitrile:methanol=7:3) and 50 μL of internal standard were added. The mixture was vortexed for 1 min and centrifuged for 10 min. 100 μL of the supernatant was taken into an inner inserted tube, centrifuged for 5 min, and injected for LC-MS/MS analysis.
Preparation of blank control sample (PPT-0): 100 μL of frozen human blank plasma was taken, to which 195 μL of acetonitrile and 100 μL of internal standard were added, followed by 5 μL of the compound of the present invention, clopidogrel or 2-oxo product (20 μM). The mixture was vortexed for 1 min and centrifuged for 10 min. 100 μL of the supernatant was taken into an inner inserted tube, centrifuged for 5 min, and injected for LC-MS/MS analysis.

[3] = system: platelet aggregation induced by ADP; assay: Test of inhibitory effect of compounds on platelet aggregation in rats (ex vivo, ADP-induced, after intragastric administration); set-up: species or system SD rats; conditions: for ED50: Rattus norvegicus; for Inhibition rate (%): platelet aggregation, control = 100%; for Aggregation rate (%): 2 h after administration, ADP 20 uM
Experimental: Test of Inhibitory Effect of Compounds on Platelet Aggregation in Rats Healthy male SD rats were selected and randomly divided into solvent control group, positive drug control group and test compound group. Intragastric administration was carried out, with the administration volume being 10 ml/kg˜bw. […] The platelet count was adjusted to 5×10^8 cells/ml with PPP.

[4] = Stability of the compounds under high temperature, high humidity and light (influence factors, HPLC); assay type: physicochemical
Experimental: Study on the Stability of the Compounds:
The stability of the compound is investigated under the conditions of high temperature, high humidity and light. The testing conditions for high performance liquid chromatography (HPLC) are as follows:
Instrument: high performance liquid chromatography;
Column: Inertsil C8-3, 150 mm×4.6 mm, 5 μm;
Mobile phase A: acetonitrile; mobile phase B: 5 mM ammonium dihydrogen phosphate;
Detection wavelength: 220 nm;
Column temperature: 35° C.;
Sample chamber temperature: 25° C.;
Column: Agilent Poroshell 120 EC-C18, 100 mm×4.6 mm, 2.7 μm;
Column temperature: 30° C.;
Other conditions are the same as that in Method 1.
Samples relating to Compound I-2 were tested using Method 2 and other samples were tested using Method 1. The test results of the influence factors are shown in Table 14, and the test results of the light-avoidance stability test are shown in Table 15.

[5] = system: bleeding time of amputated tail in rats; assay: Test of hemorrhagic side effects: bleeding time of amputated tail in rats; assay type: in vivo, SD rats; conditions: intragastric, tail cut 1 h after administration, linear equation fitted
Experimental: Test of Hemorrhagic Side Effects:
1 h after administration, the rats were anesthetized by intraperitoneal injection of 20% urethane (1 g/kg), and the tail was cut off 5 mm from the tip of the tail, which was then placed in a test tube containing 5 ml normal saline at 37° C. The time from tail cut to cease of bleeding was recorded as the bleeding time. The increasing rate of bleeding time in each dose group was calculated, with the bleeding time of the rats in the control group being 100%.

[6] = inhibition of ADP-induced platelet aggregation, rats, oral administration, read-out: ED50
[7] = 5 days, High temperature 60° C.
[8] = 10 days, High temperature 60° C.
[9] = 30 days, High temperature 60° C.

Concentration of incubated compound in human plasma ([2]; 0 min): 965 nM
Incubated compound in human plasma, % ([2]; 0 min): 98.1%
Concentration of incubated compound in human plasma ([2]; 5 min): 1045 nM
Incubated compound in human plasma, % ([2]; 5 min): 106%
Concentration of incubated compound in human plasma ([2]; 10 min): 1000 nM
Incubated compound in human plasma, % ([2]; 10 min): 102%
Concentration of incubated compound in human plasma ([2]; 20 min): 987 nM
Incubated compound in human plasma, % ([2]; 20 min): 100%
Concentration of incubated compound in human plasma ([2]; 30 min): 1025 nM
Incubated compound in human plasma, % ([2]; 30 min): 104%
Concentration of incubated compound in human plasma ([2]; 45 min): 995 nM
Incubated compound in human plasma, % ([2]; 45 min): 101%
Concentration of incubated compound in human plasma ([2]; 60 min): 981 nM
Incubated compound in human plasma, % ([2]; 60 min): 100%
Concentration of incubated compound in human plasma ([2]; 90 min): 924 nM
Incubated compound in human plasma, % ([2]; 90 min): 94.0%
Concentration of incubated compound in human plasma ([2]; 120 min): 944 nM
Incubated compound in human plasma, % ([2]; 120 min): 96.0%
Stability in human plasma ([2]; plasma, 2 h): substantially stable
SMILES: COC(=O)[C@H](c1ccccc1Cl)N1CCc2sccc2C1 [Clopidogrel, reference compound]
ED50 [1]: 11.8 mg/kg
Inhibition rate (%) ([1]; intragastric 3 mg/kg): 24.2%
Inhibition rate (%) ([1]; intragastric 10 mg/kg): 41.5%
Inhibition rate (%) ([1]; intragastric 30 mg/kg): 72.6%
ED50 [3, 6]: 4.13 mg/kg
Inhibition rate (%) ([3]; rats, intragastric 2.5 mg/kg): 26.5%
Inhibition rate (%) ([3]; rats, intragastric 5 mg/kg): 59.7%
Inhibition rate (%) ([3]; rats, intragastric 10 mg/kg): 90.5%
Aggregation rate (%) ([3]; rats, intragastric 2.5 mg/kg): 44.1 ± 13.5%
Aggregation rate (%) ([3]; rats, intragastric 5 mg/kg): 24.2 ± 10.6 %
Aggregation rate (%) ([3]; rats, intragastric 10 mg/kg): 5.7 ± 7.5 %

Chromatographic purity % ([4]; 0 day, 0point): 99.118%
Individual maximum impurity % ([4]; 0 day, 0point): 0.135%
Chromatographic purity % ([4]; 5 days, High humidity RH92.5%): 99.253%
Individual maximum impurity % ([4]; 5 days, High humidity RH92.5%): 0.127%
Chromatographic purity % [4, 7]: 96.953%
Individual maximum impurity % [4, 7]: 0.510%
Chromatographic purity % ([4]; 5 days, Light 4500 ± 500 LX): 91.635%
Individual maximum impurity % ([4]; 5 days, Light 4500 ± 500 LX): 1.094%
Chromatographic purity % ([4]; 10 days, High humidity RH92.5%): 99.202%
Individual maximum impurity % ([4]; 10 days, High humidity RH92.5%): 0.104%
Chromatographic purity % [4, 8]: 93.371%
Individual maximum impurity % [4, 8]: 1.224%
Chromatographic purity % ([4]; 10 days, Light 4500 ± 500 LX): 80.960%
Individual maximum impurity % ([4]; 10 days, Light 4500 ± 500 LX): 2.821%
Chromatographic purity % ([4]; 30 days, High humidity RH92.5%): 98.933%
Individual maximum impurity % ([4]; 30 days, High humidity RH92.5%): 0.172%
Chromatographic purity % [4, 9]: 80.070%
Individual maximum impurity % [4, 9]: 5.418%
Chromatographic purity % ([4]; 30 days, Light 4500 ± 500 LX): 59.908%
Individual maximum impurity % ([4]; 30 days, Light 4500 ± 500 LX): 8.206%
SMILES: COC(=O)[C@H](c1ccccc1Cl)N1CCc2sc(OC(=O)/C=C/c3ccc(OC)cc3)cc2C1 [Compound D-8, Methyl (S,E)-2-(2-chlorophenyl)-2-(2-(3-(4-methoxyphenyl)acryloyloxy)-6,7-dihydrothieno[3,2-c]pyridin-5(4H)-yl)-acetate, reference compound]

SMILES: COC(=O)[C@H](c1ccccc1Cl)N1CCc2sc(OC(C)=O)cc2C1.Cl [Compound D-9, Methyl (S,E)-2-(2-chlorophenyl)-2-(2-acetoxy-6,7-dihydrothieno[3,2-c]pyridin-5(4H)-yl)-acetate Hydrochloride, reference compound]
Chromatographic purity % ([4]; 0 day, 0point): 99.802%
Individual maximum impurity % ([4]; 0 day, 0point): 0.062%
Chromatographic purity % ([4]; 5 days, High humidity RH92.5%): 29.362%
Individual maximum impurity % ([4]; 5 days, High humidity RH92.5%): 20.760%
Chromatographic purity % [4, 7]: 92.725%
Individual maximum impurity % [4, 7]: 2.897%
Chromatographic purity % ([4]; 5 days, Light 4500 ± 500 LX): 97.637%
Individual maximum impurity % ([4]; 5 days, Light 4500 ± 500 LX): 0.946%
Chromatographic purity % ([4]; 10 days, High humidity RH92.5%): 3.827%
Individual maximum impurity % ([4]; 10 days, High humidity RH92.5%): 26.942%
Chromatographic purity % [4, 8]: 84.395%
Individual maximum impurity % [4, 8]: 5.254%
Chromatographic purity % ([4]; 10 days, Light 4500 ± 500 LX): 96.472%
Individual maximum impurity % ([4]; 10 days, Light 4500 ± 500 LX): 1.621%
Individual maximum impurity % ([4]; 30 days, High humidity RH92.5%): 52.717%
Chromatographic purity % [4, 9]: 39.866%
Individual maximum impurity % [4, 9]: 9.740%
Chromatographic purity % ([4]; 30 days, Light 4500 ± 500 LX): 91.198%
Individual maximum impurity % ([4]; 30 days, Light 4500 ± 500 LX): 3.728%

SMILES: C=C/C=C/C(=O)Oc1cc2c(s1)CCN([C@H](C(=O)OC)c1ccccc1Cl)C2 [Compound I-3, Methyl (S,E)-2-(2-chlorophenyl)-2-(2-(2,4-pentadienoyloxy)-6,7-dihydrothieno[3,2-c]pyridin-5(4H)-yl)-acetate]
ED50 [3, 6]: 1.04 mg/kg
Inhibition rate (%) ([3]; rats, intragastric 1 mg/kg): 44.0%
Inhibition rate (%) ([3]; rats, intragastric 2 mg/kg): 97.6%
Inhibition rate (%) ([3]; rats, intragastric 4 mg/kg): 100%
Aggregation rate (%) ([3]; rats, intragastric 1 mg/kg): 33.6 ± 31.3%
Aggregation rate (%) ([3]; rats, intragastric 2 mg/kg): 1.44 ± 2.5 %
Aggregation rate (%) ([3]; rats, intragastric 4 mg/kg): 0.0 ± 0.0 %

SMILES: CC/C=C/C(=O)Oc1cc2c(s1)CCN([C@H](C(=O)OC)c1ccccc1Cl)C2 [Compound I-4, Methyl (S,E)-2-(2-chlorophenyl)-2-(2-(2-pentenoyloxy)-6,7-dihydrothieno[3,2-c]pyridin-5(4H)-yl)-acetate]
ED50 [3, 6]: 1.27 mg/kg
Inhibition rate (%) ([3]; rats, intragastric 0.5 mg/kg): 26.2%
Inhibition rate (%) ([3]; rats, intragastric 1 mg/kg): 38.2%
Inhibition rate (%) ([3]; rats, intragastric 2 mg/kg): 62.9%
Inhibition rate (%) ([3]; rats, intragastric 4 mg/kg): 78.4%
Inhibition rate (%) ([3]; rats, intragastric 8 mg/kg): 100.0%
Aggregation rate (%) ([3]; rats, intragastric 0.5 mg/kg): 44.3 ± 25.8%
Aggregation rate (%) ([3]; rats, intragastric 1 mg/kg): 37.1 ± 20.8%
Aggregation rate (%) ([3]; rats, intragastric 2 mg/kg): 22.3 ± 17.2 %
Aggregation rate (%) ([3]; rats, intragastric 4 mg/kg): 13.0 ± 11.3 %
Aggregation rate (%) ([3]; rats, intragastric 8 mg/kg): 0.0 ± 0.0 %

SMILES: CCC/C=C/C(=O)Oc1cc2c(s1)CCN([C@H](C(=O)OC)c1ccccc1Cl)C2 [Compound I-5, Methyl (S,E)-2-(2-chlorophenyl)-2-(2-(2-hexenoyloxy)-6,7-dihydrothieno[3,2-c]pyridin-5(4H)-yl)-acetate]
ED50 ([3]; Platelet, po): 1.03 mg/kg
Inhibition rate (%) ([3]; rats, intragastric 0.5 mg/kg): 19.5%
Inhibition rate (%) ([3]; rats, intragastric 1 mg/kg): 52.8%
Inhibition rate (%) ([3]; rats, intragastric 2 mg/kg): 74.3%
Aggregation rate (%) ([3]; rats, intragastric 0.5 mg/kg): 48.4 ± 17.3%
Aggregation rate (%) ([3]; rats, intragastric 1 mg/kg): 28.3 ± 11.7 %
Aggregation rate (%) ([3]; rats, intragastric 2 mg/kg): 15.4 ± 14.7 %

SMILES: CC(=O)Oc1cc2c(s1)CCN(C(C(=O)C1CC1)c1ccccc1F)C2 (centres unmarked) [Prasugrel, reference compound]
ED50 [1]: 1.57 mg/kg
Inhibition rate (%) ([1]; intragastric 0.1 mg/kg): 6.0%
Inhibition rate (%) ([1]; intragastric 0.3 mg/kg): 9.0%
Inhibition rate (%) ([1]; intragastric 1 mg/kg): 35.7%
Inhibition rate (%) ([1]; intragastric 3 mg/kg): 70.2%
ED200 (dose that doubled the bleeding time) [5]: 0.513 mg/kg
ED50 [3, 6]: 0.612 mg/kg
Inhibition rate (%) ([3]; rats, intragastric 0.25 mg/kg): 13.3%
Inhibition rate (%) ([3]; rats, intragastric 0.5 mg/kg): 37.8%
Inhibition rate (%) ([3]; rats, intragastric 1 mg/kg): 75.0%
Aggregation rate (%) ([3]; rats, intragastric 0.25 mg/kg): 52.1 ± 6.6%
Aggregation rate (%) ([3]; rats, intragastric 0.5 mg/kg): 37.4 ± 12.3 %
Aggregation rate (%) ([3]; rats, intragastric 1 mg/kg): 15.0 ± 10.2 %
